Here are results for 29 molecules from US9416126B2, “Compounds inhibiting leucine-rich repeat kinase enzyme activity” (Merck Sharp & Dohme Corp., priority 2013, dated 2016).

Chain of LRRK2(G2019S mutation, GST-LRRK2(amino acids 970-2527)) (Q5S007 970-2527 G2019S): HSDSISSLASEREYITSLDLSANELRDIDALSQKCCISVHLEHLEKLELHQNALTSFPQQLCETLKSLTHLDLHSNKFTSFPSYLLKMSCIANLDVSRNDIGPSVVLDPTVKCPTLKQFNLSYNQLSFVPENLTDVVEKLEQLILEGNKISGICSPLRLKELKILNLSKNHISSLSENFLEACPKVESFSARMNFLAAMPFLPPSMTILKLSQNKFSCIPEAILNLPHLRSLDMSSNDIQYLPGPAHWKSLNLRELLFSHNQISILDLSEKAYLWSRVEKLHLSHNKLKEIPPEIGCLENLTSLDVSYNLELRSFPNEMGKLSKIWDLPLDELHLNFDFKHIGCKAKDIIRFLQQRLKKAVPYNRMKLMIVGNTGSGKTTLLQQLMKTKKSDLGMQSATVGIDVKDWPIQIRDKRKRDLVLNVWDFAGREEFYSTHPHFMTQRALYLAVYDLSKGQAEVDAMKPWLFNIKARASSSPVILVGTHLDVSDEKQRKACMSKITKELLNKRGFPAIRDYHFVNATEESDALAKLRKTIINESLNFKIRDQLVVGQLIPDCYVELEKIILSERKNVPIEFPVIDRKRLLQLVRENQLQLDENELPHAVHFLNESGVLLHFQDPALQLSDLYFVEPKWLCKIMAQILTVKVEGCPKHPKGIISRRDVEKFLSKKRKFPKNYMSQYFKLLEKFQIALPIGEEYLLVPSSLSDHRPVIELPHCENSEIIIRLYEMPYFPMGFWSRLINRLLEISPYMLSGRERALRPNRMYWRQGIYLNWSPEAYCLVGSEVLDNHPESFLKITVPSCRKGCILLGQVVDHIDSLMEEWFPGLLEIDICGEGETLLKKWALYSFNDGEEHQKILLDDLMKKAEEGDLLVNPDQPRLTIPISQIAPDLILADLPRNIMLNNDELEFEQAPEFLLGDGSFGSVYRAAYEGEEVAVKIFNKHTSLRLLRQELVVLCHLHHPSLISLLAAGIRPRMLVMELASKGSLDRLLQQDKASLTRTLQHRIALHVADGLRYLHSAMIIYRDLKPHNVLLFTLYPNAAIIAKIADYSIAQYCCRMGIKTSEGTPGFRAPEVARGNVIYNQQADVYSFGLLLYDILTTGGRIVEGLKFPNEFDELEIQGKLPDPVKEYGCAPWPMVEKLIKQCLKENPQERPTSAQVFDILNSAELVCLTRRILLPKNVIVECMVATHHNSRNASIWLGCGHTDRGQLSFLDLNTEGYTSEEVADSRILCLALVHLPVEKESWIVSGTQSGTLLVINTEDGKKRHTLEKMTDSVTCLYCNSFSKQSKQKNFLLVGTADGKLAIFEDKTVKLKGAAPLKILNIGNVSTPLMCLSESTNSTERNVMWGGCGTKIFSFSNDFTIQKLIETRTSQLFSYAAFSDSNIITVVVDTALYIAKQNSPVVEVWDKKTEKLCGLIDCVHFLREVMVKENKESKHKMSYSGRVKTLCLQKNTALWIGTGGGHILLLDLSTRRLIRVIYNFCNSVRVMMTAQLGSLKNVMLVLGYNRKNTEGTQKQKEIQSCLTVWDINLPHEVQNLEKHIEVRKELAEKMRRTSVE

The first assay has as its target LRRK2(G2019S mutation, GST-LRRK2(amino acids 970-2527)) (Homo sapiens (Human), UniProt Q5S007, G2019S). As to the kind of experiment: LRRK2 Km ATP LanthaScreen Assay. The settings on record: Examples O1-O23. In kind it is biochemical. The protocol: Unless otherwise noted, all LRRK2 IC50 data presented in tables refers to the LRRK2 Km ATP LanthaScreen™ Assay that is described in the Biological Assay section.
The data presented for the 5 mM and Km ATP LanthaScreen™ Assay represents mean IC50 values based on several test results and may have reasonable. deviations depending on the specific conditions and reagents used. Reagents for the LRRK2 5 mM and Km ATP LanthaScreen™ Assay were purchased from Life Technologies Corporation.
LRRK2 Km ATP LanthaScreen™ Assay
a) 400 nl of a 1:2.15 serial dilution of test compound(98 μM top assay concentration) is spotted via Labcyte Echo to certain wells in a 384 well black, untreated plate. Control wells contain 400 nl of either DMSO or 400 nl of a known inhibitor in DMSO.
b) 10 μl of a 2.5 nM LRRK2(G2019S mutation, GST-LRRK2(amino acids 970-2527)) enzyme solution in 1× assay buffer(50 mM Tris pH 8.5, 10 mM MgCl2, 0.01% Brij-35, 1 mM EGTA, 2 mM DTT, 0.05 mM NaVO4) is added to all wells.
c) A 30 minute room temperature incubation is followed by addition of 10 μl of 800 nM fluorescein labeled LRRKtide peptide substrate and 184 μM ATP solution in 1× assay buffer to all wells.
d) After a 60 minute room temperature incubation, 20 μl of TR-FRET Dilution Buffer(Invitrogen PV3756B) containing 4 nM Tb-labeled anti-phospho LRRKtide antibody and 20 mM EDTA is added to all wells.
e) Plates are incubated at room temperature for 1 hour and read on an Envision™ multi-mode plate reader with LanthaScreen™ settings. Results are analysed using Assay Data Analyzer.
On the technique in general: In TR-FRET formats the signal depends on donor and acceptor labels being close together.
In turn, `COC[C@H](C)Oc1ccc2[nH]nc(-c3cc(N4CCC5(CC4)CNC(=O)CO5)ncn3)c2c1` [Example O23] displayed an IC50 of 3.5 nM.
On the same count and under the same terms, the figure for `COC[C@H](C)Oc1ccc2[nH]nc(-c3cc(N4CC(F)(F)C4)ncn3)c2c1` [Example O14] is 7.6 nM.
Take `COC[C@H](C)Oc1ccc2[nH]nc(-c3cc(N4CC(OC)C4)ncn3)c2c1` [Example O10]: inhibition was half-maximal at 5.6 nM (IC50). This IC50 and that of the molecule before are within 1.5-fold of each other.
Molecule `COC[C@H](C)Oc1ccc2[nH]nc(-c3cc(N4CCOC[C@H]4C)ncn3)c2c1` [Example O2] returned a half-maximal inhibitory concentration (IC50) of 20.2 nM.

Staying with this assay, now noted: Examples P1-P18.
The molecule `c1ncc(-c2ccc3[nH]nc(-c4cc(N5CCOCC5)ncn4)c3c2)cn1` [Example P5] gave an IC50 of 40.7 nM.
Consider `N#Cc1ccc(-c2ccc3[nH]nc(-c4cc(N5CCOCC5)ncn4)c3c2)cc1` [Example P6], for which the IC50 was 150 nM.

Still in this assay, the particulars now being: Examples Q1-Q20.
Take `COCCn1cc(-c2ccc3[nH]nc(-c4cc(N5C[C@@H](C)O[C@@H](C)C5)ncn4)c3c2)cn1` [Example Q14]: 1.8 nM corresponded to half-maximal inhibition (IC50).

The assay is the same for the next values; noted with them: Km ATP (184 μM ATP solution), G2019S LRRK2, mean IC50.
On to `CC(C)Oc1ccc2[nH]nc(-c3cc(N4CCOC5(CC5)C4)ncn3)c2c1` [Example D12], for which the IC50 came to 4.04 nM.
The molecule `COC[C@H](C)Oc1ccc2[nH]nc(-c3cc(N4CCN(C)CC4)ncn3)c2c1` [Example H7] registered a half-inhibitory concentration (IC50) of 2.08 nM. Compared with the last molecule, the IC50 is about 1.9-fold lower.
The same measure, in the same setting: the figure for `CC(C)Oc1ccc2[nH]nc(-c3cc(N4CCCC(C(C)(C)O)C4)ncn3)c2c1` (centres unmarked) [Example K13] is 6.9 nM; for `COC[C@@H](C)Oc1ccc2[nH]nc(-c3cc(N4C[C@@H](C)O[C@@H](C)C4)ncn3)c2c1` [Example H2] it is 39.1 nM; for `COCCOc1ccc2[nH]nc(-c3cc(N4CCNC(=O)C4)ncn3)c2c1` [Example G6] it is 136 nM.
In the case of `Cn1cc(-c2ccc3[nH]nc(-c4cc(N5CCCC(C)(O)C5)ncn4)c3c2)cn1` (centres unmarked) [Example M8], the half-inhibitory concentration (IC50) amounted to 7.9 nM.
As to `FC1(F)CCN(c2cc(-c3n[nH]c4ccc(-c5cccnc5)cc34)ncn2)CC1` [U], the IC50 is 11.1 nM.
On the same count and under the same terms, the figure for `COC[C@H](C)Oc1ccc2[nH]nc(-c3cc(N4CCC5(CCN(C)C5=O)CC4)ncn3)c2c1` [Example H15] is 3.71 nM.
`COCCOc1ccc2[nH]nc(-c3cc(N4C[C@@H](C)O[C@@H](C)C4)ncn3)c2c1` [Example G2] registered an IC50 of 76.6 nM. Against the preceding molecule, the IC50 is about 21-fold higher.
The same measure, in the same setting: the figure for `Cn1cc(-c2ccc3[nH]nc(-c4cc(N5CCNC(=O)C5)ncn4)c3c2)cn1` [Example A14] is 2.84 nM.
In turn, `CC(C)N1CCN(c2cc(-c3n[nH]c4ccc(-c5cnn(C)c5)cc34)ncn2)CC1` [Example A15] showed an IC50 of 0.73 nM.
For the molecule `CC(C)=Cc1ccc2[nH]nc(-c3cc(N4C[C@@H](C)O[C@@H](C)C4)ncn3)c2c1` [Example S5], half-maximal inhibition (IC50) was put at 20.3 nM.
With `CCN1CCN(c2cc(-c3n[nH]c4ccc(OC(C)C)cc34)ncn2)CC1=O` [Example D28], the 50% inhibitory concentration (IC50) came out at 5.6 nM.
On the same count and under the same terms, the figure for `Cn1cc(-c2ccc3[nH]nc(-c4cc(N5CCCC(F)(F)C5)ncn4)c3c2)cn1` [Example M2] is 2.2 nM; for `CC(C)Oc1cc2c(-c3cc(N4CCN(CCO)CC4)ncn3)n[nH]c2cc1F` [Example D62] it is 1.65 nM; for `CC(C)Oc1ccc2[nH]nc(-c3cc(N4C[C@H](O)[C@@H](O)[C@@H]4C)ncn3)c2c1` [Example D42] it is 18.1 nM.
Take `Cn1cc(-c2cc3c(-c4cc(N5CCC(n6cccn6)C5)ncn4)n[nH]c3cc2F)cn1` (centres unmarked) [Example L16]: the midpoint of inhibition, the IC50, lay at 73.5 nM.
On the same count and under the same terms, the figure for `CC(C)Oc1cc2c(-c3cc(N4CCN(C(=O)C5CC5)CC4)ncn3)n[nH]c2cc1F` [Example D65] is 2.98 nM; for `CC(C)Oc1cc2c(-c3cc(N4C[C@H](O)[C@@H](N)[C@@H]4C)ncn3)n[nH]c2cc1F` [Example D61] it is 11.7 nM.

Still in this assay, the particulars now being: Table U.
Consider `COc1ccncc1-c1ccc2[nH]nc(-c3cc(N4CCN(C(C)C)CC4)ncn3)c2c1` [Example U23], for which the half-maximal inhibitory concentration (IC50) came out at 1.26 nM.
In turn, `O=C1C=C(c2ccc3[nH]nc(-c4cc(N5CCOCC5)ncn4)c3c2)CCC1` [Example U17] had an IC50 of 1.63 nM.
Still for that read-out and setting: the figure for `FC1(F)CCN(c2cc(-c3n[nH]c4ccc(-c5cn[nH]c5)cc34)ncn2)CC1` [Example U7] is 5.69 nM.

One may read the IC50 as the concentration at which inhibition is half-maximal. A low value points to inhibition by little substance.
